For this data set the following is noted: 295 K; for surface tension liquid-gas: Maximal bubble pressure; for mass density / viscosity: 101.33 kPa, Liquid; for mass density: Buoyancy - hydrostatic balance with magnetic suspension - one sinker; for viscosity: Concentric cylinders viscometry.

SMILES strings stand for the structures. ± gives the expanded uncertainty stated by the source.

Regarding `OCCO` [1,2-ethanediol], the surface tension liquid-gas amounted to 47.95 ± 2.4 mN/m, the mass density turned out to be 1120.7 ± 22 kg/m3 and the viscosity is recorded as 21.26 ± 3.1 mPa·s.
For `OCC(O)CO` [glycerol], in that order: 62.87 ± 1.4 mN/m, 1267.4 ± 25 kg/m3 and 1499.5 ± 190 mPa·s.

For the origin of these results see the NIST ThermoML archive (doi:10.1016/j.fluid.2008.08.015).
